In PMC4937426, “Dcsbis (PA2771) from Pseudomonas aeruginosa is a highly active diguanylate cyclase with unique activity regulation” (Scientific Reports, 2016):

Experiments:
[1] = biological target: T1, Dcsbis-GGDEF; Dcsbis (173-341) (Pseudomonas aeruginosa, UniProt Q9I072); experiment: X-ray crystal structure, […] Å; assay type: binding; settings: I-site; two mutually intercalated c-di-GMP molecules bridging a GGDEF dimer; Arg251, Asp254, Arg271, Arg282
T1 construct: gene PA2771

[2] = biological target: T2, Dcsbis (PA2771), full-length (Pseudomonas aeruginosa, UniProt Q9I072); experiment: coupled spectrophotometric pyrophosphate assay, Lineweaver-Burk with […] c-di-GMP; assay type: biochemical; settings: GTP substrate; product inhibition, mainly competitive; Ki not given
T2 construct: homodimer

WspR = WspR (Pseudomonas aeruginosa, UniProt Q9HXT9); experiment: coupled spectrophotometric pyrophosphate assay; assay type: biochemical; settings: turnover only, same molar concentration as Dcsbis
[3] = biological target: T1, Dcsbis-GGDEF; Dcsbis (173-341); experiment: coupled spectrophotometric pyrophosphate assay; assay type: biochemical; settings: turnover only (residual activity)
[4] = system: Nc1nc2c(ncn2[C@@H]2O[C@H](COP(=O)(O)OP(=O)(O)OP(=O)(O)O)[C@@H](O)[C@H]2O)c(=O)[nH]1; experiment: purified protein; settings: without c-di-GMP; 128-512 μM GTP

T1 sequence (Q9I072 entry or part of it): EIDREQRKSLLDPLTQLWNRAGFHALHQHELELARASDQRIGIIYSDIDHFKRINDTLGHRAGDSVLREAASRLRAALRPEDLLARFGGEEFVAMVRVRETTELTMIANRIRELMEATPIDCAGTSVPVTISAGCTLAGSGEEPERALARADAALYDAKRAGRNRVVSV
Sequence of WspR (Q9HXT9 entry or part of it): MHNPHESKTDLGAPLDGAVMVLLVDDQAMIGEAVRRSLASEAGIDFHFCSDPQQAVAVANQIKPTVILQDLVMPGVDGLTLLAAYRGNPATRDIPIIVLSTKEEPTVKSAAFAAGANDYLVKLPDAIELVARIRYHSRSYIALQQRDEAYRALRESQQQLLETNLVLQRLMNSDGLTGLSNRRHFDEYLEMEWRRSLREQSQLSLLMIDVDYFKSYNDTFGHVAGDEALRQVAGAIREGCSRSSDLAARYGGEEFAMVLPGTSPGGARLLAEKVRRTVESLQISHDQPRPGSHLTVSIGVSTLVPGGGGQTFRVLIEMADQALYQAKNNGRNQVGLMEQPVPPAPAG
T2 sequence (Q9I072 entry or part of it): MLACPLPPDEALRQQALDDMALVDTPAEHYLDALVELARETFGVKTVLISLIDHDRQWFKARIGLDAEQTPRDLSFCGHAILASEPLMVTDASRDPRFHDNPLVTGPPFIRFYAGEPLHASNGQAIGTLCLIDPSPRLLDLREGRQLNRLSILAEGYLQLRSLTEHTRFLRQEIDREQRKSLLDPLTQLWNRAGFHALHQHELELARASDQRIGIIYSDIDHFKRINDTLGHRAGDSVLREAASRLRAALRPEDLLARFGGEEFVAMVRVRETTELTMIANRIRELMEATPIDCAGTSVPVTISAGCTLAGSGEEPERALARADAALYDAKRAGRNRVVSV

In the case of `Nc1nc2c(ncn2[C@@H]2O[C@@H]3COP(=O)(O)O[C@H]4[C@@H](O)[C@H](n5cnc6c(=O)[nH]c(N)nc65)O[C@@H]4COP(=O)(O)O[C@H]3[C@H]2O)c(=O)[nH]1` [c-di-GMP], the “X-ray crystal structure, 2.5 Å” value [1] is reported as “This extra density may be explained by building in two mutually intercalated c-di-GMP molecules” and the “coupled spectrophotometric pyrophosphate assay, Lineweaver-Burk with 50 μM c-di-” value [2] is reported as “The greatly increased Km suggests that c-di-GMP mainly binds to the active site”.

In the case of `Nc1nc2c(ncn2[C@@H]2O[C@H](COP(=O)(O)OP(=O)(O)OP(=O)(O)O)[C@@H](O)[C@H]2O)c(=O)[nH]1` [GTP], the “coupled spectrophotometric pyrophosphate assay” value (WspR) is reported as “DGC activity assays were performed for the three proteins at the same molar concentration” and the “coupled spectrophotometric pyrophosphate assay” value [3] is reported as “the GGDEF domain of Dcsbis, compared with the full-length Dcsbis, exhibited only residual DGC activity”.

With “Dcsbis (PA2771), full-length (Pseudomonas aeruginosa PAO1)” the Km [4] was 88 µM.
